Measured values as given in US9980943B2, “Methods of treating muscular dystrophy” (BOARD OF REGENTS OF THE NEVADA SYSTEM OF HIGHER EDUCATION, …, priority 2013, dated 2018).

Columns and labels:
Type in all cases: cell-based, mouse
[1] = tested on: α7 integrin (LacZ reporter in α7βgal+/− myoblasts); assay: Myoblast α7+/LacZ integrin FDG assay (Burkin assay in myoblasts, 96-well); details: α7+/LacZ myoblasts, 96-well
[2] = tested on: α7 integrin (LacZ reporter in α7+/LacZ myotubes); assay: Myotube α7 integrin FDG assay (Burkin assay in myotubes, 96-well); details: for dose-response curve in myotubes: hits of Prestwick/Microsource screens
[3] = tested on: β-galactosidase in CMV-LacZ C2C12 myotubes; assay: CMV-LacZ secondary screen in C2C12 myotubes (β-Gal stabilizing assay); details: for CMV-LACZ in Myotubes (β-galactosidase activity relative to DMSO): CMV-LacZ C2C12 myotubes, 96-well format; for CMV-LACZ in Myotubes, signal relative to DMSO: C2C12 CMV-LacZ myotubes, fold relative to DMSO
Description: In order to determine compounds that acted to stabilize β-gal in myogenic cells, a CMV-LacZ C2C12 cell line was used in a secondary screen. The EGFP gene from the pEGFP (Clontech) vector was replaced by LACZ PCR product with digests of the vector/PCR product performed using EcoRI (NEB) and NotI (NEB) and ligated using T4 DNA Ligase (NEB) following standard procedures to produce the CMV-LACZ vector. The LACZ gene was generated by PCR from the pBK-RSV (Stratagene) vector using primers LACZ EcoRI F- and LACZ NotI R-. The CMV-LACZ vector was then digested with AfIII (NEB) to linearize the construct, which was then transfected in C2C12 myoblasts using Lipofectamine 2000 (Invitrogen) following the manufacturer's instructions. […] Clonal lines were selected and screened for βgal levels using the myoblast FDG assay.
The assays were used the original 96-well format and new dose-response curves for myoblasts (N=3-6 replicates for each data point), myotubes (N=3-6 replicates for data point), and CMV-LacZ secondary assay (N=2 replicates for each data point) using concentrations of 0.5 μM, 1 μM, 5 μM, 10 μM, 20 μM, and 40 μM (Tables 9-16).

SMILES	Burkin Assay in Myoblasts, value relative to DMSO ([1]; 0.5 uM)	Burkin Assay in Myoblasts, value relative to DMSO ([1]; 1 uM)	Burkin Assay in Myoblasts, value relative to DMSO ([1]; 5 uM)	Burkin Assay in Myoblasts, value relative to DMSO ([1]; 10 uM)	Burkin Assay in Myoblasts, value relative to DMSO ([1]; 20 uM)	Burkin Assay in Myoblasts, value relative to DMSO ([1]; 40 uM)	Burkin Assay in Myotubes (signal relative to DMSO) ([2]; 0.5 uM)	Burkin Assay in Myotubes (signal relative to DMSO) ([2]; 1 uM)	Burkin Assay in Myotubes (signal relative to DMSO) ([2]; 5 uM)	Burkin Assay in Myotubes (signal relative to DMSO) ([2]; 10 uM)	Burkin Assay in Myotubes (signal relative to DMSO) ([2]; 20 uM)	Burkin Assay in Myotubes (signal relative to DMSO) ([2]; 40 uM)	CMV-LACZ in Myotubes, signal relative to DMSO ([3]; 5 uM)	CMV-LACZ in Myotubes, signal relative to DMSO ([3]; 10 uM)	CMV-LACZ in Myotubes, signal relative to DMSO ([3]; 20 uM)	CMV-LACZ in Myotubes, signal relative to DMSO ([3]; 40 uM)	other results
O=C(c1ccc(Cl)c(S(=O)(=O)N2CCCCC2)c1)N1CCN(Cc2ccccc2)CC1 [MLS001060561-01]	0.9961	0.9284	0.8266	0.8878	0.795	0.6318	0.8047	0.9329	0.9832	0.9977	0.8557	0.9329	–	–	–	–	CMV-LACZ in Myotubes (β-galactosidase activity relative to DMSO) ([3]; 5 uM): 0.9396; CMV-LACZ in Myotubes (β-galactosidase activity relative to DMSO) ([3]; 10 uM): 1.002; CMV-LACZ in Myotubes (β-galactosidase activity relative to DMSO) ([3]; 20 uM): 0.9373; CMV-LACZ in Myotubes (β-galactosidase activity relative to DMSO) ([3]; 40 uM): 0.6425
O=S(=O)(NCC(c1ccco1)N1CCOCC1)c1ccc(Cl)cc1 (stereo not drawn) [MLS000724709-01]	0.9899	0.9554	0.7389	0.779	0.486	0.5536	0.9961	1.467	1.04	1.002	0.885	0.9768	–	–	–	–	CMV-LACZ in Myotubes (β-galactosidase activity relative to DMSO) ([3]; 5 uM): 0.8422; CMV-LACZ in Myotubes (β-galactosidase activity relative to DMSO) ([3]; 10 uM): 0.8828; CMV-LACZ in Myotubes (β-galactosidase activity relative to DMSO) ([3]; 20 uM): 1.054; CMV-LACZ in Myotubes (β-galactosidase activity relative to DMSO) ([3]; 40 uM): 1.125
CNc1cc([N+](=O)[O-])ccc1OCc1ccccc1 [MLS000737204-01]	–	–	–	–	–	–	–	–	–	–	–	–	1.029	0.8068	0.5772	0.3807	Burkin Assay in Myoblasts, signal relative to DMSO ([1]; 0.5 uM): 0.9011; Burkin Assay in Myoblasts, signal relative to DMSO ([1]; 1 uM): 0.9816; Burkin Assay in Myoblasts, signal relative to DMSO ([1]; 5 uM): 0.9164; Burkin Assay in Myoblasts, signal relative to DMSO ([1]; 10 uM): 0.9336; Burkin Assay in Myoblasts, signal relative to DMSO ([1]; 20 uM): 0.8731; Burkin Assay in Myoblasts, signal relative to DMSO ([1]; 40 uM): 0.7472; Burkin Assay in Myotubes, α7 integrin LacZ reporter signal relative to DMSO ([2]; 0.5 uM): 1.043; Burkin Assay in Myotubes, α7 integrin LacZ reporter signal relative to DMSO ([2]; 1 uM): 1.173; Burkin Assay in Myotubes, α7 integrin LacZ reporter signal relative to DMSO ([2]; 5 uM): 1.0331; Burkin Assay in Myotubes, α7 integrin LacZ reporter signal relative to DMSO ([2]; 10 uM): 1.12; Burkin Assay in Myotubes, α7 integrin LacZ reporter signal relative to DMSO ([2]; 20 uM): 0.8815; Burkin Assay in Myotubes, α7 integrin LacZ reporter signal relative to DMSO ([2]; 40 uM): 0.6682
Cc1ccc(NC(=O)NCc2nc3ccccc3n2C)cc1 [MLS001175592-01]	0.8989	0.8859	0.9323	0.9006	0.9731	0.9405	0.9685	0.986	0.6911	1.034	0.6445	1.047	0.947	1.031	0.9649	1.018	–
COc1cc(/C=C/c2nc(-c3ccccc3O)n[nH]2)cc(OC)c1OC [MLS000548725-01]	0.9132	0.8894	0.8989	0.7645	0.5169	0.07694	0.8698	0.8418	0.9206	0.8462	1.031	0.2219	–	–	–	–	CMV-LACZ in Myotubes (β-galactosidase activity relative to DMSO) ([3]; 5 uM): 0.9789; CMV-LACZ in Myotubes (β-galactosidase activity relative to DMSO) ([3]; 10 uM): 1.126; CMV-LACZ in Myotubes (β-galactosidase activity relative to DMSO) ([3]; 20 uM): 0.8729; CMV-LACZ in Myotubes (β-galactosidase activity relative to DMSO) ([3]; 40 uM): 0.332
COc1cc(C(C(=O)NC2CCCCC2)N(C(=O)c2snc(C(N)=O)c2N)c2ccc(C)cc2)ccc1O (stereo not drawn) [MLS001218427-01]	–	–	–	–	–	–	–	–	–	–	–	–	1.209	15.1793	34.571	0.6965	Burkin Assay in Myoblasts, signal relative to DMSO ([1]; 0.5 uM): 0.9466; Burkin Assay in Myoblasts, signal relative to DMSO ([1]; 1 uM): 0.9485; Burkin Assay in Myoblasts, signal relative to DMSO ([1]; 5 uM): 0.8334; Burkin Assay in Myoblasts, signal relative to DMSO ([1]; 10 uM): 0.7663; Burkin Assay in Myoblasts, signal relative to DMSO ([1]; 20 uM): 0.2232; Burkin Assay in Myoblasts, signal relative to DMSO ([1]; 40 uM): 0.3039; Burkin Assay in Myotubes, α7 integrin LacZ reporter signal relative to DMSO ([2]; 0.5 uM): 0.8052; Burkin Assay in Myotubes, α7 integrin LacZ reporter signal relative to DMSO ([2]; 1 uM): 0.7974; Burkin Assay in Myotubes, α7 integrin LacZ reporter signal relative to DMSO ([2]; 5 uM): 0.8464; Burkin Assay in Myotubes, α7 integrin LacZ reporter signal relative to DMSO ([2]; 10 uM): 0.6054; Burkin Assay in Myotubes, α7 integrin LacZ reporter signal relative to DMSO ([2]; 20 uM): 0.3311; Burkin Assay in Myotubes, α7 integrin LacZ reporter signal relative to DMSO ([2]; 40 uM): 0.429
Cc1ccc(NCc2nnc(SCC(=O)Nc3nnc(C)s3)n2C)cc1 [MLS000688437-01]	–	–	–	–	–	–	–	–	–	–	–	–	1.232	0.9346	1.03	1.051	Burkin Assay in Myoblasts, signal relative to DMSO ([1]; 0.5 uM): 0.8901; Burkin Assay in Myoblasts, signal relative to DMSO ([1]; 1 uM): 0.8878; Burkin Assay in Myoblasts, signal relative to DMSO ([1]; 5 uM): 0.8233; Burkin Assay in Myoblasts, signal relative to DMSO ([1]; 10 uM): 0.9077; Burkin Assay in Myoblasts, signal relative to DMSO ([1]; 20 uM): 0.8203; Burkin Assay in Myoblasts, signal relative to DMSO ([1]; 40 uM): 0.8064; Burkin Assay in Myotubes, α7 integrin LacZ reporter signal relative to DMSO ([2]; 0.5 uM): 1.076; Burkin Assay in Myotubes, α7 integrin LacZ reporter signal relative to DMSO ([2]; 1 uM): 1.194; Burkin Assay in Myotubes, α7 integrin LacZ reporter signal relative to DMSO ([2]; 5 uM): 1.124; Burkin Assay in Myotubes, α7 integrin LacZ reporter signal relative to DMSO ([2]; 10 uM): 1.102; Burkin Assay in Myotubes, α7 integrin LacZ reporter signal relative to DMSO ([2]; 20 uM): 0.9929; Burkin Assay in Myotubes, α7 integrin LacZ reporter signal relative to DMSO ([2]; 40 uM): 1.034
CCc1c(C2(O)CCCCC2)[nH]c2ncccc12 [MLS002402866-01]	1.037	1.1052	0.9113	0.9376	0.8943	0.7689	1.09	1.258	1.181	1	1.075	0.9237	0.8739	0.7966	0.832	0.7307	–
Cc1cc(C2CCCCC2)n(O)c(=O)c1 [Ciclopirox ethanolamine, reference compound]	–	–	–	–	–	–	–	–	–	–	–	–	–	–	–	–	dose-response curve in myotubes [2]: positive dose-response curves
CCCC(=O)[O-].[Na+] [sodium butyrate, reference compound]	–	–	–	–	–	–	–	–	–	–	–	–	–	–	–	–	β-galactosidase levels ([2]; treatments of ~1.5 mM, preliminary screens): increase β-galactosidase levels
c1ccc(-c2ccccn2)nc1 [2,2-Dipyridyl, reference compound]	–	–	–	–	–	–	–	–	–	–	–	–	–	–	–	–	dose-response curve in myotubes [2]: positive dose-response curves
CC(C)CCC[C@@H](C)[C@H]1CC[C@H]2[C@@H]3CC(=O)[C@H]4C[C@@H](O)CC[C@]4(C)[C@H]3CC[C@]12C [5alpha-cholestan-3β-ol-6-one, reference compound]	–	–	–	–	–	–	–	–	–	–	–	–	–	–	–	–	dose-response curve in myotubes [2]: positive dose-response curve
